# Source: US20070155764A1, “NOVEL SUBSTITUTED PYRIMIDINYLOXY UREAS USEFUL AS INHIBITORS OF PROTEIN KINASES” (KALYPSYS, INC., priority 2005, published 2007)
# Tests used:
# Format in all cases: biochemical
# VEGFR2 kinase = target: T1, VEGFR2 kinase (Homo sapiens, UniProt P35968); test: In vitro VEGFR2 kinase assay; conditions: ADP Quest assay, poly Glu:Tyr substrate, 60 μM ATP
# T1 construct: purchased Invitrogen Inc PV3660
# Protocol: (§1) In vitro vegfr2 and PDGFRβ Kinase Assays
# (§2) 2.5 μl of ADP Quest assay buffer (DiscoverX Inc., cat. #90-0071) containing 20 ng VEGFR2 kinase (Invitrogen Inc, cat. #PV3660) or 25 ng PDGFRβ kinase (Invitrogen Inc., cat. #P3082) is dispensed to wells of a 1536 multi-well, black solid plate. 60 nl of 100× concentration of test compound in DMSO is dispensed to the well by passive pin transfer and incubated for 10 minutes at room temperature (approx. 22° C.). 2.5 μl of ADP Quest assay buffer containing 0.25 μg of poly Glu:Tyr (4:1) substrate peptide (Upstate Inc., cat. #12-440) and 60 μM ATP is then dispensed and the kinase reaction allowed to incubate at 30° C. for 2 hours. The assay plates are sealed and maintained in a humidified environment. After the 2 hour incubation, 2 μl of ADP Quest assay reagent A, followed by 2 μl of assay reagent B, is added. After an additional 30 minute incubation at room temperature, fluorescence intensity is measured on a Molecular Devices Aquest multi-mode plate reader or other suitable plate reader (fluorescence excitation filter: 530/25 [Peak (nm)/FWHM passband (nm)]; dichroic beamsplitter: 561 nm longpass; fluorescence emission filter: 580/10 [Peak (nm)/FWHM passband (nm)]. The assay measures the conversion of a non-fluoresecent molecule to fluorescent resorutin, which correlates with kinase activity. Negative control activity is measured with DMSO lacking any test compound. The positive control is [N-(3-trifluoromethyl-4-chlorophenyl)-N′-(4-(2-methylcarbamoyl-pyridin-4-yl)oxyphenyl)urea], aka Bay 43-9006. Efficacy is measured as a percentage of positive control activity.
# [1] = target: T2, human B-Raf protein kinase (Homo sapiens, UniProt P15056); test: In vitro B-Raf/Mek1 composite kinase assay; conditions: recombinant GST-tagged human B-Raf (Δ1-415) with inactive Mek1, 2 μM ATP
# T2 construct: GST (N); purchased Upstate Inc. 14-530 (B-Raf); 14-420 (Mek1)
# Protocol: In Vitro B-Raf/Mek1 Composite Kinase Assay
# 2.5 μl of B-Raf kinase buffer (20 mM MOPS [pH 7.2], 25 mM sodium glycerophosphate, 2 mM EGTA [pH 8.0], 1 mM sodium orthovanadate, 1 mM dithiothreitol, 10 mM MgCl2, 0.03% Brij-35, 0.3 mg/ml bovine serum albumin) containing 1 ng of recombinant, N-terminal GST-tagged human B-Raf protein kinase (Δ1-415, Upstate Inc., cat. #14-530) is dispensed to wells of a 1536 multi-well white solid plate. 60 nl of 100× concentration of test compound in DMSO is dispensed to the well by passive pin transfer and incubated for 15 minutes at room temperature (approx. 22° C.). […] The assay plates are sealed and maintained in a humidified environment. After 2 hours, 2.5 μl of PKLight protein kinase assay reagent (Cambrex, cat. #LT07-501) is dispensed. After an additional 5 minute incubation at room temperature, luminescence activity is measured on a Molecular Devices Analyst multi-mode plate reader or other suitable plate reader. Kinase inhibition results in less ATP depletion, and therefore increased luminescence signal. Negative control activity is measured with DMSO lacking any test compound. The positive control is [N-(3-trifluoromethyl-4-chlorophenyl)-N′-(4-(2-methylcarbamoyl-pyridin-4-yl)oxyphenyl)urea], aka Bay 43-9006. Efficacy is measured as a percentage of positive control activity.
# PDGFRβ kinase = target: T3, PDGFRβ kinase (Homo sapiens, UniProt P09619); test: In vitro PDGFRβ kinase assay; conditions: ADP Quest assay, poly Glu:Tyr substrate, 60 μM ATP
# T3 construct: purchased Invitrogen Inc. P3082
# Protocol: as §1, §2
# T1 sequence (P35968 20-1356): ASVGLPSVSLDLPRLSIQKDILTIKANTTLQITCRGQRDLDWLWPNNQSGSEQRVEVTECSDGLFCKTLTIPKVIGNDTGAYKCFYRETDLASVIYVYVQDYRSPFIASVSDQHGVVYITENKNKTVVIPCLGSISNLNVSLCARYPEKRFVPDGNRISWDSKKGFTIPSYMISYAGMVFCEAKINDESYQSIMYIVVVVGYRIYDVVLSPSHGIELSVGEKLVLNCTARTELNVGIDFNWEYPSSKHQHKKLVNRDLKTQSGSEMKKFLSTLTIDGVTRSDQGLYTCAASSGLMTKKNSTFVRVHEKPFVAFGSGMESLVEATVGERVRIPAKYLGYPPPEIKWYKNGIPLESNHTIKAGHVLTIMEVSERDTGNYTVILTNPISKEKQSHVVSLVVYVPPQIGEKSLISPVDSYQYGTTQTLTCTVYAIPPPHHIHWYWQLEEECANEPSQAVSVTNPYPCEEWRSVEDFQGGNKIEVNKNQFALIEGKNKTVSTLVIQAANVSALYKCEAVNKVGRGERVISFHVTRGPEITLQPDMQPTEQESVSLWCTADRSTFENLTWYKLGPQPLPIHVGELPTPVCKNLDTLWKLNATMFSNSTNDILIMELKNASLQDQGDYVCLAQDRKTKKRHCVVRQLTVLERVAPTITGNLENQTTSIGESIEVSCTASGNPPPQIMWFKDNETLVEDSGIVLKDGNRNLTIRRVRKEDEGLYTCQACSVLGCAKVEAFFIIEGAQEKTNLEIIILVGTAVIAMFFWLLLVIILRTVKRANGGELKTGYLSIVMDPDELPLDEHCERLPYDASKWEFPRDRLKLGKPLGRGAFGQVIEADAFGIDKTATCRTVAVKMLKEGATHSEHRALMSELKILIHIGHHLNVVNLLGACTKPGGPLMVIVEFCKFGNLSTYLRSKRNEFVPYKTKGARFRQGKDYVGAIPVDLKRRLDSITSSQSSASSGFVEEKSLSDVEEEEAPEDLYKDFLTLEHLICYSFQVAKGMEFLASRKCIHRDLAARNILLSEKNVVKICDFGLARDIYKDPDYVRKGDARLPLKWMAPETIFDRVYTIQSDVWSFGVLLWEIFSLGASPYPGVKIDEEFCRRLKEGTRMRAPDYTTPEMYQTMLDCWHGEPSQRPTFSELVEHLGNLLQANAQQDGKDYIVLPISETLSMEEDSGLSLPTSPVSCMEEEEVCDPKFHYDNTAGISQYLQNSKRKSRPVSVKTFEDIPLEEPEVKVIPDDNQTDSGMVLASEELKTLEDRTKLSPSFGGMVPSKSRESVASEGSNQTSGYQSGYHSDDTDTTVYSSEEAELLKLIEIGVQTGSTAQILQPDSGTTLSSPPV
# T2 sequence (P15056 416-766): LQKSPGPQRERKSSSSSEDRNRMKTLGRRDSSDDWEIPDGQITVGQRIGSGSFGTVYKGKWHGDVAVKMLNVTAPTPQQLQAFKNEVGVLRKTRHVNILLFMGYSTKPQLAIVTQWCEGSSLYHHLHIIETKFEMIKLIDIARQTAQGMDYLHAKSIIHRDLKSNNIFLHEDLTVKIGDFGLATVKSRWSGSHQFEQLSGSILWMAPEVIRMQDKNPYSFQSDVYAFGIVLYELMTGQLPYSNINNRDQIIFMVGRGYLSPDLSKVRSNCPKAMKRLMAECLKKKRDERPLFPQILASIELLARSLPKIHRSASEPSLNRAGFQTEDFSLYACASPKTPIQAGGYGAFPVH
# T3 sequence (P09619 33-1106): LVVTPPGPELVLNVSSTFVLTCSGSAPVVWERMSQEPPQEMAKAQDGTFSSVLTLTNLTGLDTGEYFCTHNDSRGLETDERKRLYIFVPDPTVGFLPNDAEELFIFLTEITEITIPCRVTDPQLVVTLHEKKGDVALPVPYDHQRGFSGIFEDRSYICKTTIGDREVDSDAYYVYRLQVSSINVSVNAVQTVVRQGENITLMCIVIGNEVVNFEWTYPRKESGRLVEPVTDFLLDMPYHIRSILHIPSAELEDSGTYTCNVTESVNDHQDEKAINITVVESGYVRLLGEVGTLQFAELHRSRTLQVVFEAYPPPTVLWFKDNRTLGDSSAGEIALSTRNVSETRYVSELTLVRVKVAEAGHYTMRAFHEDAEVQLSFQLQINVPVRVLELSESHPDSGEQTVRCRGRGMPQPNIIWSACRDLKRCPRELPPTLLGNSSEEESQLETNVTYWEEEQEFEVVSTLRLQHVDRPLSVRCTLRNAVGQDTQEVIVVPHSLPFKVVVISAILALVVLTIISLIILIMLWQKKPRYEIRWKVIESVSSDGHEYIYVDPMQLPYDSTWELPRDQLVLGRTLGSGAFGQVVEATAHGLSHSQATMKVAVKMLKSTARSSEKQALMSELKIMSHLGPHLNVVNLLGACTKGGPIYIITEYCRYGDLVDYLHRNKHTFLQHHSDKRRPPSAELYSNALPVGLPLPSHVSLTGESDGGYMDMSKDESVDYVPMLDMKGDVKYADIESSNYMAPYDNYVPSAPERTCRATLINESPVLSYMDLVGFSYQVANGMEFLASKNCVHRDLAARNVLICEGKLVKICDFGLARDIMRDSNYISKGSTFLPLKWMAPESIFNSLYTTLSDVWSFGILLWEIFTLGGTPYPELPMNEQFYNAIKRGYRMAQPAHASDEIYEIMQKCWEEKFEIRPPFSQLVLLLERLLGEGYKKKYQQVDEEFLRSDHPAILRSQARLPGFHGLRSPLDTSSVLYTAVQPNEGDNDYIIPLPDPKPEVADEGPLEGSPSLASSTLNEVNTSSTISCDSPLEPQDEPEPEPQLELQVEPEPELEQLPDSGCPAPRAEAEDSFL
compound,measurement,setting,value
"O=C(Nc1ccc(Cl)c(C(F)(F)F)c1)Nc1cc(Oc2cc(-c3nnco3)ncn2)c(F)cc1F [Example 45, 1-(5-(6-(1,3,4-Oxadiazol-2-yl)pyrimidin-4-yloxy)-2,4-difluorophenyl)-3-(4-chloro-3-(trifluoromethyl)phenyl)urea]",IC50,VEGFR2 kinase,≤ 10 µM
same,IC50,[1],≤ 10 µM
same,IC50,PDGFRβ kinase,≤ 10 µM
"Cc1nc(-c2cc(Oc3cccc(NC(=O)Nc4ccc(Cl)c(C(F)(F)F)c4)c3)ncn2)cs1 [Example 46, 1-(4-Chloro-3-(trifluoromethyl)phenyl)-3-(3-(6-(2-methylthiazol-4-yl)pyrimidin-4-yloxy)phenyl)urea]",IC50,VEGFR2 kinase,≤ 10 µM
same,IC50,[1],≤ 10 µM
same,IC50,PDGFRβ kinase,≤ 10 µM
"CN1CCC(OCc2cc(NC(=O)Nc3ccc(Oc4ccnc(-c5nnco5)c4)cc3)cc(C(F)(F)F)c2)CC1 [Example 47, 1-(4-(2-(1,3,4-Oxadiazol-2-yl)pyridin-4-yloxy)phenyl)-3-(3-((1-methylpiperidin-4-yloxy)methyl)-5-(trifluoromethyl)phenyl)urea]",IC50,VEGFR2 kinase,≤ 10 µM
same,IC50,[1],≤ 10 µM
same,IC50,PDGFRβ kinase,≤ 10 µM
"O=C(Nc1cccc(Oc2cc(-c3nnco3)ncn2)c1)Nc1ccc(C(F)(F)F)c(Cl)c1 [Example 48, 1-(3-(6-(1,3,4-Oxadiazol-2-yl)pyrimidin-4-yloxy)phenyl)-3-(3-chloro-4-(trifluoromethyl)phenyl)urea]",IC50,VEGFR2 kinase,≤ 10 µM
same,IC50,[1],≤ 10 µM
same,IC50,PDGFRβ kinase,≤ 10 µM
"O=C(Nc1cccc(Oc2cc(-c3cnn(Cc4ccccc4)c3)ncn2)c1)Nc1ccc(Cl)c(C(F)(F)F)c1 [Example 49, 1-(3-(6-(1-Benzyl-1H-pyrazol-4-yl)pyrimidin-4-yloxy)phenyl)-3-(4-chloro-3-(trifluoromethyl)phenyl)urea]",IC50,VEGFR2 kinase,> 10 µM
same,IC50,[1],≤ 10 µM
same,IC50,PDGFRβ kinase,> 10 µM
"CN(C)CCNc1nc(-c2cc(Oc3cccc(NC(=O)Nc4ccc(Cl)c(C(F)(F)F)c4)c3)ncn2)cs1 [Example 50, 1-(4-Chloro-3-(trifluoromethyl)phenyl)-3-(3-(6-(2-(2-(dimethylamino)ethylamino)thiazol-4-yl)pyrimidin-4-yloxy)phenyl)urea]",IC50,VEGFR2 kinase,≤ 10 µM
same,IC50,[1],≤ 10 µM
same,IC50,PDGFRβ kinase,≤ 10 µM
"Cc1cn(-c2cc(NC(=O)Nc3ccc(Oc4cc(-c5cnn(C)c5)ncn4)cc3)cc(C(F)(F)F)c2)cn1 [Example 51, 1-(3-(4-Methyl-1H-imidazol-1-yl)-5-(trifluoromethyl)phenyl)-3-(4-(6-(1-methyl-1H-pyrazol-4-yl)pyrimidin-4-yloxy)phenyl)urea]",IC50,VEGFR2 kinase,≤ 10 µM
same,IC50,[1],≤ 10 µM
same,IC50,PDGFRβ kinase,≤ 10 µM
"COCCOc1ccc(NC(=O)Nc2ccc(Oc3cc(-c4cnn(C)c4)ncn3)cc2)cc1C(F)(F)F [Example 52, 1-(4-(2-Methoxyethoxy)-3-(trifluoromethyl)phenyl)-3-(4-(6-(1-methyl-1H-pyrazol-4-yl)pyrimidin-4-yloxy)phenyl)urea]",IC50,VEGFR2 kinase,≤ 10 µM
same,IC50,[1],≤ 10 µM
same,IC50,PDGFRβ kinase,≤ 10 µM
"COCCOc1ccc(NC(=O)Nc2ccc(Oc3cc(-c4nnco4)ncn3)cc2)cc1C(F)(F)F [Example 53, 1-(4-(6-(1,3,4-Oxadiazol-2-yl)pyrimidin-4-yloxy)phenyl)-3-(4-(2-methoxyethoxy)-3-(trifluoromethyl)phenyl)urea]",IC50,VEGFR2 kinase,≤ 10 µM
same,IC50,[1],> 10 µM
same,IC50,PDGFRβ kinase,≤ 10 µM
"COC(=O)Cn1cc(-c2cc(Oc3cccc(NC(=O)Nc4ccc(Cl)c(C(F)(F)F)c4)c3)ncn2)cn1 [Example 54, Methyl 2-(4-(6-(3-(3-(4-chloro-3-(trifluoromethyl)phenyl)ureido)phenoxy)pyrimidin-4-yl)-1H-pyrazol-1-yl)acetate]",IC50,VEGFR2 kinase,≤ 10 µM
same,IC50,[1],≤ 10 µM
same,IC50,PDGFRβ kinase,≤ 10 µM
"CNC(=O)Cn1cc(-c2cc(Oc3cccc(NC(=O)Nc4ccc(Cl)c(C(F)(F)F)c4)c3)ncn2)cn1 [Example 56, 2-(4-(6-(3-(3-(4-Chloro-3-(trifluoromethyl)phenyl)ureido)phenoxy)pyrimidin-4-yl)-1H-pyrazol-1-yl)-N-methylacetamide]",IC50,VEGFR2 kinase,≤ 10 µM
same,IC50,[1],≤ 10 µM
same,IC50,PDGFRβ kinase,≤ 10 µM
"Cn1cc(-c2cc(Oc3cc(NC(=O)Nc4ccc(Cl)c(C(F)(F)F)c4)c(F)cc3F)ncn2)cn1 [Example 57, 1-(4-Chloro-3-(trifluoromethyl)phenyl)-3-(2,4-difluoro-5-(6-(1-methyl-1H-pyrazol-4-yl)pyrimidin-4-yloxy)phenyl)urea]",IC50,VEGFR2 kinase,≤ 10 µM
same,IC50,[1],≤ 10 µM
same,IC50,PDGFRβ kinase,≤ 10 µM
"COC(=O)Cn1ccc(-c2cc(Oc3cccc(NC(=O)Nc4ccc(Cl)c(C(F)(F)F)c4)c3)ncn2)n1 [Example 58, Methyl 2-(3-(6-(3-(3-(4-chloro-3-(trifluoromethyl)phenyl)ureido)phenoxy)pyrimidin-4-yl)-1H-pyrazol-1-yl)acetate]",IC50,VEGFR2 kinase,≤ 10 µM
same,IC50,[1],≤ 10 µM
same,IC50,PDGFRβ kinase,≤ 10 µM
"NC(=O)Cn1ccc(-c2cc(Oc3cccc(NC(=O)Nc4ccc(Cl)c(C(F)(F)F)c4)c3)ncn2)n1 [Example 59, 2-(3-(6-(3-(3-(4-Chloro-3-(trifluoromethyl)phenyl)ureido)phenoxy)pyrimidin-4-yl)-1H-pyrazol-1-yl)acetamide]",IC50,VEGFR2 kinase,≤ 10 µM
same,IC50,[1],≤ 10 µM
same,IC50,PDGFRβ kinase,≤ 10 µM
"CNC(=O)Cn1ccc(-c2cc(Oc3cccc(NC(=O)Nc4ccc(Cl)c(C(F)(F)F)c4)c3)ncn2)n1 [Example 60, 2-(3-(6-(3-(3-(4-Chloro-3-(trifluoromethyl)phenyl)ureido)phenoxy)pyrimidin-4-yl)-1H-pyrazol-1-yl)-N-methylacetamide]",IC50,VEGFR2 kinase,≤ 10 µM
same,IC50,[1],≤ 10 µM
same,IC50,PDGFRβ kinase,≤ 10 µM
"Cn1ccc(-c2cc(Oc3cccc(NC(=O)Nc4ccc(Cl)c(C(F)(F)F)c4)c3)ncn2)n1 [Example 61, 1-(4-Chloro-3-(trifluoromethyl)phenyl)-3-(3-(6-(1-methyl-1H-pyrazol-3-yl)pyrimidin-4-yloxy)phenyl)urea]",IC50,VEGFR2 kinase,> 10 µM
same,IC50,[1],≤ 10 µM
same,IC50,PDGFRβ kinase,> 10 µM
"Cn1nccc1-c1cc(Oc2cccc(NC(=O)Nc3ccc(Cl)c(C(F)(F)F)c3)c2)ncn1 [Example 62, 1-(4-Chloro-3-(trifluoromethyl)phenyl)-3-(3-(6-(1-methyl-1H-pyrazol-5-yl)pyrimidin-4-yloxy)phenyl)urea]",IC50,VEGFR2 kinase,≤ 10 µM
same,IC50,[1],≤ 10 µM
same,IC50,PDGFRβ kinase,≤ 10 µM
"O=C(Nc1cccc(Oc2cc(-c3ccn(CCO)n3)ncn2)c1)Nc1ccc(Cl)c(C(F)(F)F)c1 [Example 63, 1-(4-Chloro-3-(trifluoromethyl)phenyl)-3-(3-(6-(1-(2-hydroxyethyl)-1H-pyrazol-3-yl)pyrimidin-4-yloxy)phenyl)urea]",IC50,VEGFR2 kinase,> 10 µM
same,IC50,[1],≤ 10 µM
same,IC50,PDGFRβ kinase,> 10 µM
"N#CCn1cc(-c2cc(Oc3cccc(NC(=O)Nc4ccc(Cl)c(C(F)(F)F)c4)c3)ncn2)cn1 [Example 64, 1-(4-Chloro-3-(trifluoromethyl)phenyl)-3-(3-(6-(1-(cyanomethyl)-1H-pyrazol-4-yl)pyrimidin-4-yloxy)phenyl)urea]",IC50,VEGFR2 kinase,≤ 10 µM
same,IC50,[1],≤ 10 µM
same,IC50,PDGFRβ kinase,≤ 10 µM
"Cn1cc(-c2nccc(Oc3cc(NC(=O)Nc4ccc(Cl)c(C(F)(F)F)c4)c(F)cc3F)n2)cn1 [Example 67, 1-(4-Chloro-3-(trifluoromethyl)phenyl)-3-(2,4-difluoro-5-(2-(1-methyl-1H-pyrazol-4-yl)pyrimidin-4-yloxy)phenyl)urea]",IC50,VEGFR2 kinase,≤ 10 µM
same,IC50,[1],≤ 10 µM
same,IC50,PDGFRβ kinase,≤ 10 µM
"CC(C)n1cc(-c2cc(Oc3cccc(NC(=O)Nc4ccc(Cl)c(C(F)(F)F)c4)c3)ncn2)cn1 [Example 68, 1-(4-Chloro-3-(trifluoromethyl)phenyl)-3-(3-(6-(1-isopropyl-1H-pyrazol-4-yl)pyrimidin-4-yloxy)phenyl)urea]",IC50,VEGFR2 kinase,> 10 µM
same,IC50,[1],≤ 10 µM
same,IC50,PDGFRβ kinase,≤ 10 µM
